Laboratory results as given in paper PMC12647645, “Structural interactions of BWC0977 with Klebsiella pneumoniae topoisomerase IV and biochemical basis of its broad-spectrum activity” (Communications Biology, 2025).
Converted amounts (≈) assume the structure as drawn. “And” between values parts separate entries of the source, which are not always exact repeats. Equal entries are not always repeated.

What was measured:
Human topo IIß = Human topo IIß (Homo sapiens, UniProt Q02880); test: Human topo IIß decatenation assay; assay type: biochemical
Procedure: Human topo IIα (0.9 nM) and topo IIß (2.2 nM) decatenation assays were performed following the same protocol used for bacterial topoisomerase IV decatenation assays. The assay buffer was made of 50 mM Tris. HCl (pH 7.5), 125 mM NaCl, 10 mM MgCl2, 5 mM DTT, and 100 μg/mL albumin.

A. baumannii BAA 2885 = test: microbe, parasite or virus in culture; assay type: cell-based; details: Acinetobacter baumannii, BAA2885
E. faecium = system: E. faecium; parameters: method as in ref 6 (Hameed P et al., 2024); details: ref 6 (Hameed P et al., 2024); cited from earlier work
P. aeruginosa gyrase = P. aeruginosa gyrase (Pseudomonas aeruginosa, UniProt P48372+Q9I7C2); test: biochemical; details: for Gyrase supercoiling inhibition response: P. aeruginosa gyrase
[1] = system: multidrug-resistant (MDR) Gram-negative bacteria, Gram-positive bacteria, anaerobes, and biothreat pathogens; details: diverse global panel; cited from earlier work
[2] = system: E. coli MG1655 GyrA M120A, ParC M118A; test: microbe, parasite or virus in culture; assay type: cell-based; details: Escherichia coli
E. cloacae = details: ref 6 (Hameed P et al., 2024); cited from earlier work
E. coli gyrase [3] = target: T1, E. coli gyrase (Escherichia coli, UniProt P0AES4+P0AES6); assay type: biochemical; details: gyrase cleavage-complex assay
T1 construct: purchased Inspiralis
Procedure: Reactions were stopped by adding 3.8 μL of a stop solution containing 0.8 μL Proteinase K (20 mg/mL) and 3 μL SDS (2%), followed by incubation at 37 °C for 60 min. Afterward, 4 μL of STEB loading buffer was added, and samples were run on pre-stained 0.8% agarose gels containing 0.4 μg/mL ethidium bromide. […] The % nicked and linear DNA formed with varying compound concentrations was plotted for comparison.

P. aeruginosa ATCC 27853 = details: >4× MIC; cited from earlier work
K. pneumoniae = details: ref 6 (Hameed P et al., 2024); cited from earlier work
[4] = target: S. aureus topoisomerase IV (Staphylococcus aureus, UniProt P0C1S7+P0C1U9); test: biochemical; parameters: Topo IV decatenation inhibition response: unit not given here
Procedure: Assays with P. aeruginosa topoisomerase IV (3 nM) were conducted in a similar buffer but with 50 mM HEPES-KOH (pH 7.9), 100 mM potassium glutamate, 6 mM magnesium acetate, 6 mM DTT, 1 mM ATP, 2 mM spermidine, and 50 μg/mL albumin. For S. aureus topoisomerase IV assay, the reactions contained 4 nM enzyme in an assay buffer composed of 50 mM Tris-HCl (pH 7.5), 5 mM MgCl₂, 5 mM DTT, 1.5 mM ATP, 350 mM potassium glutamate, and 0.05 mg/mL albumin. The procedures followed were consistent with those used in the supercoiling assays. Decatenated minicircles were resolved on 0.8% agarose gels, while the kDNA substrate remained in the wells. Gels were stained with 0.8 μg/mL ethidium bromide solution for 10 min, followed by destaining. DNA bands were visualized using a gel documentation system, and compound inhibition analysis was carried out using the same procedures described for the supercoiling assays.

[5] = system: E. coli MG1655 GyrA R121K, ParC WT; test: microbe, parasite or virus in culture; assay type: cell-based; details: Escherichia coli
[6] = target: E. coli GyrA S83L mutant gyrase (Escherichia coli, UniProt P0AES4+P0AES6, S83L); test: biochemical; assay type: biochemical; details: for Gyrase supercoiling inhibition response: GyrA S83L gyrase
E. coli gyrase [7] = target: T1, E. coli gyrase; test: biochemical; assay type: biochemical; details: for Gyrase supercoiling inhibition response: E. coli WT gyrase
[8] = system: E. coli MG1655 GyrA WT, ParC R119K; test: microbe, parasite or virus in culture; assay type: cell-based; details: Escherichia coli
E. coli wild-type strain = test: MIC, wild-type strain; assay type: cell-based; details: Escherichia coli
K. pneumoniae KPNIH1 = test: microbe, parasite or virus in culture; assay type: cell-based; details: Klebsiella pneumoniae
K. pneumoniae ATCC 13883 = test: MIC broth microdilution; assay type: cell-based; details: Klebsiella pneumoniae, ATCC13883

## Cn1c(=O)ccc2ccc(F)c(CCNC[C@H]3CN(c4cnc5c(n4)NC(=O)CO5)C(=O)O3)c21 [BWC0977]
Human topo IIß
  IC50: > 200000 nM
A. baumannii BAA 2885
  MIC: 0.5 µg/mL (≈ 1.07 µM)
E. faecium
  MIC90 against diverse global isolates: 0.12 µg/mL (≈ 0.256 µM)
P. aeruginosa gyrase
  IC50: 9.4 nM
P. aeruginosa gyrase; compound 0.0005 μM, source data Fig 2B, listed as 977, 0.0005 µM
  Gyrase supercoiling inhibition response: 6.77
P. aeruginosa gyrase; compound 0.001 μM, source data Fig 2B, listed as 977, 0.001 µM
  Gyrase supercoiling inhibition response: 9.59
P. aeruginosa gyrase; compound 0.004 μM, source data Fig 2B, listed as 977, 0.004 µM
  Gyrase supercoiling inhibition response: 27.41
P. aeruginosa gyrase; compound 0.012 μM, source data Fig 2B, listed as 977, 0.012 µM
  Gyrase supercoiling inhibition response: 48.08
P. aeruginosa gyrase; compound 0.037 μM, source data Fig 2B, listed as 977, 0.037 µM
  Gyrase supercoiling inhibition response: 69.93
P. aeruginosa gyrase; compound 0.111 μM, source data Fig 2B, listed as 977, 0.111 µM
  Gyrase supercoiling inhibition response: 87.28
P. aeruginosa gyrase; compound 0.333 μM, source data Fig 2B, listed as 977, 0.333 µM
  Gyrase supercoiling inhibition response: 93.63
P. aeruginosa gyrase; compound 1 μM, source data Fig 2B, listed as 977, 1 µM
  Gyrase supercoiling inhibition response: 99.48
P. aeruginosa gyrase; compound 3 μM, source data Fig 2B, listed as 977, 3 µM
  Gyrase supercoiling inhibition response: 100.23
P. aeruginosa gyrase; read-out: Gyrase supercoiling inhibition response, P. aeruginosa gyrase, compound 0.0005 μM, source data Fig 2B
  inhibition at 0.0005 µM: 12.6%
P. aeruginosa gyrase; read-out: Gyrase supercoiling inhibition response, P. aeruginosa gyrase, compound 0.001 μM, source data Fig 2B
  inhibition at 0.001 µM: 16.5%
P. aeruginosa gyrase; read-out: Gyrase supercoiling inhibition response, P. aeruginosa gyrase, compound 0.004 μM, source data Fig 2B
  inhibition at 0.004 µM: 32.4%
P. aeruginosa gyrase; read-out: Gyrase supercoiling inhibition response, P. aeruginosa gyrase, compound 0.012 μM, source data Fig 2B
  inhibition at 0.012 µM: 61.3%
P. aeruginosa gyrase; read-out: Gyrase supercoiling inhibition response, P. aeruginosa gyrase, compound 0.037 μM, source data Fig 2B
  inhibition at 0.037 µM: 85.1%
P. aeruginosa gyrase; read-out: Gyrase supercoiling inhibition response, P. aeruginosa gyrase, compound 0.111 μM, source data Fig 2B
  inhibition at 0.111 µM: 97.4%
P. aeruginosa gyrase; read-out: Gyrase supercoiling inhibition response, P. aeruginosa gyrase, compound 0.333 μM, source data Fig 2B
  inhibition at 0.333 µM: 99%
P. aeruginosa gyrase; read-out: Gyrase supercoiling inhibition response, P. aeruginosa gyrase, compound 1 μM, source data Fig 2B
  inhibition at 1 µM: 99.8%
P. aeruginosa gyrase; read-out: Gyrase supercoiling inhibition response, P. aeruginosa gyrase, compound 3 μM, source data Fig 2B
  inhibition at 3 µM: 103%
[1]
  minimum inhibitory concentration (MIC90) range: 0.03 to 2 µg/mL
[2]
  MIC: 0.0625 µg/mL (≈ 0.133 µM)
E. cloacae
  MIC90 against diverse global isolates: 2 µg/mL (≈ 4.27 µM)
E. coli gyrase [3]
  type of DNA breaks induced: single-strand DNA breaks
P. aeruginosa ATCC 27853
  resistant colonies on exposure: no resistant colonies
K. pneumoniae
  MIC90 against diverse global isolates: 2 µg/mL (≈ 4.27 µM)
[4]
  IC50: 110 nM
[4]; S. aureus topo IV, compound 0.0037 μM, source data Fig 2C, read-out: Topo IV decatenation inhibition response
  inhibition at 0.0037 µM: 0%
[4]; S. aureus topo IV, compound 0.0988 μM, source data Fig 2C, listed as 977, 0.0988 µM
  Topo IV decatenation inhibition response: 31.67 and 43.21 and 56.17
[4]; S. aureus topo IV, compound 0.2963 μM, source data Fig 2C, listed as 977, 0.2963 µM
  Topo IV decatenation inhibition response: 76.23 and 76.66
[4]; S. aureus topo IV, compound 0.2963 μM, source data Fig 2C, read-out: Topo IV decatenation inhibition response
  inhibition at 0.2963 µM: 67%
[4]; S. aureus topo IV, compound 0.8889 μM, source data Fig 2C, listed as 977, 0.8889 µM
  Topo IV decatenation inhibition response: 92.92 and 90.9
[4]; S. aureus topo IV, compound 0.8889 μM, source data Fig 2C, read-out: Topo IV decatenation inhibition response
  inhibition at 0.8889 µM: 89.7%
[4]; S. aureus topo IV, compound 2.6667 μM, source data Fig 2C, read-out: Topo IV decatenation inhibition response
  inhibition at 2.6667 µM: 98.1%
[4]; S. aureus topo IV, compound 8 μM, source data Fig 2C, listed as 977, 8 µM
  Topo IV decatenation inhibition response: 99.9 and 99.56
[4]; S. aureus topo IV, compound 8 μM, source data Fig 2C, read-out: Topo IV decatenation inhibition response
  inhibition at 8 µM: 99.7%
[5]
  MIC: 0.01 µg/mL (≈ 0.0213 µM)
[6]; Fig. 6, read-out: IC50 S83L gyrase supercoiling
  IC50: 3 nM
[6]; compound 0.0005 µM, source data Fig 6A, 0.0005 µM
  Gyrase supercoiling inhibition response: 7.40
[6]; compound 0.0014 µM, source data Fig 6A, 0.0014 µM
  Gyrase supercoiling inhibition response: 20.69
[6]; compound 0.0041 µM, source data Fig 6A, 0.0041 µM
  Gyrase supercoiling inhibition response: 57.16
[6]; compound 0.012 µM, source data Fig 6A, 0.012 µM
  Gyrase supercoiling inhibition response: 82.23
[6]; compound 0.037 µM, source data Fig 6A, 0.037 µM
  Gyrase supercoiling inhibition response: 88.47
[6]; compound 0.111 µM, source data Fig 6A, 0.111 µM
  Gyrase supercoiling inhibition response: 97.88
[6]; compound 0.333 µM, source data Fig 6A, 0.333 µM
  Gyrase supercoiling inhibition response: 98.84
[6]; compound 1 µM, source data Fig 6A, 1 µM
  Gyrase supercoiling inhibition response: 98.71
[6]; compound 3 µM, source data Fig 6A, 3 µM
  Gyrase supercoiling inhibition response: 96.44
[6]; quinolone-resistant S83L vs WT
  potency shift relative to WT: < 3 fold
[6]; read-out: Gyrase supercoiling inhibition response, GyrA S83L gyrase, compound 0.0014 µM, source data Fig 6A
  inhibition at 0.0014 µM: 35%
[6]; read-out: Gyrase supercoiling inhibition response, GyrA S83L gyrase, compound 0.0041 µM, source data Fig 6A
  inhibition at 0.0041 µM: 60.7%
[6]; read-out: Gyrase supercoiling inhibition response, GyrA S83L gyrase, compound 0.012 µM, source data Fig 6A
  inhibition at 0.012 µM: 74.3%
[6]; read-out: Gyrase supercoiling inhibition response, GyrA S83L gyrase, compound 0.037 µM, source data Fig 6A
  inhibition at 0.037 µM: 90.2%
[6]; read-out: Gyrase supercoiling inhibition response, GyrA S83L gyrase, compound 0.111 µM, source data Fig 6A
  inhibition at 0.111 µM: 91%
[6]; read-out: Gyrase supercoiling inhibition response, GyrA S83L gyrase, compound 0.333 µM, source data Fig 6A
  inhibition at 0.333 µM: 97.8%
[6]; read-out: Gyrase supercoiling inhibition response, GyrA S83L gyrase, compound 1 µM, source data Fig 6A
  inhibition at 1 µM: 99.5%
[6]; read-out: Gyrase supercoiling inhibition response, GyrA S83L gyrase, compound 3 µM, source data Fig 6A
  inhibition at 3 µM: 97.9%
E. coli gyrase [7]
  IC50: 4 ± 1 nM
E. coli gyrase [7]; compound 0.0003 μM, source data Fig 2A/6A, 0.0003 µM
  Gyrase supercoiling inhibition response: 7.2 and 10.3 and 5.8
E. coli gyrase [7]; compound 0.0003 μM, source data Fig 2A/6A, listed as 977, 0.0003 µM
  Gyrase supercoiling inhibition response: 10.30 and 5.78
E. coli gyrase [7]; compound 0.008 μM, source data Fig 2A/6A, 0.008 µM
  Gyrase supercoiling inhibition response: 69.7 and 73.4
E. coli gyrase [7]; compound 0.008 μM, source data Fig 2A/6A, listed as 977, 0.008 µM
  Gyrase supercoiling inhibition response: 73.65 and 69.70 and 73.41
E. coli gyrase [7]; compound 0.074 μM, source data Fig 2A/6A, 0.074 µM
  Gyrase supercoiling inhibition response: 93.3 and 92.7
E. coli gyrase [7]; compound 0.074 μM, source data Fig 2A/6A, listed as 977, 0.074 µM
  Gyrase supercoiling inhibition response: 89.29 and 93.34 and 92.67
E. coli gyrase [7]; compound 0.222 μM, source data Fig 2A/6A, 0.222 µM
  Gyrase supercoiling inhibition response: 96.5 and 97.7 and 91.5
E. coli gyrase [7]; compound 0.222 μM, source data Fig 2A/6A, listed as 977, 0.222 µM
  Gyrase supercoiling inhibition response: 97.67 and 91.52
E. coli gyrase [7]; compound 2 μM, source data Fig 2A/6A, 2 µM
  Gyrase supercoiling inhibition response: 100.2 and 100.3 and 98.6
E. coli gyrase [7]; compound 2 μM, source data Fig 2A/6A, listed as 977, 2 µM
  Gyrase supercoiling inhibition response: 100.30 and 98.60
E. coli gyrase [7]; E. coli gyrase
  higher inhibition potency compared to compound 17a: ~ 20 fold
E. coli gyrase [7]; read-out: Gyrase supercoiling inhibition response, E. coli WT gyrase, compound 0.0003 μM, source data Fig 2A/6A
  inhibition at 0.0003 µM: 7.23%
E. coli gyrase [7]; read-out: Gyrase supercoiling inhibition response, E. coli WT gyrase, compound 0.008 μM, source data Fig 2A/6A
  inhibition at 0.008 µM: 73.7%
E. coli gyrase [7]; read-out: Gyrase supercoiling inhibition response, E. coli WT gyrase, compound 0.074 μM, source data Fig 2A/6A
  inhibition at 0.074 µM: 89.3%
E. coli gyrase [7]; read-out: Gyrase supercoiling inhibition response, E. coli WT gyrase, compound 0.222 μM, source data Fig 2A/6A
  inhibition at 0.222 µM: 96.5%
E. coli gyrase [7]; read-out: Gyrase supercoiling inhibition response, E. coli WT gyrase, compound 2 μM, source data Fig 2A/6A
  inhibition at 2 µM: 100%
[8]
  MIC: 0.026 µg/mL (≈ 0.0555 µM)
E. coli wild-type strain
  MIC: 0.01 µg/mL (≈ 0.0213 µM)
K. pneumoniae KPNIH1
  MIC: 1 µg/mL (≈ 2.13 µM)
K. pneumoniae ATCC 13883
  MIC: 0.06 µg/mL (≈ 0.128 µM)
